Laboratory results: patent US4062950A, “Amino sugar derivatives” (priority 1973, dated 1977)
Like-named read-outs stand apart in the source and are kept apart here.

Columns and labels:
saccharase = molecular target: T1, saccharase (Rattus norvegicus, UniProt P23739); experiment: In vivo saccharase inhibition (sucrose overfeeding test) in the fasting rat; conditions: for ED50: read-out: Saccharase Inhibition (ED50 mg/kg)
T1 construct: from tissue; host or cells: intestine of the living rat (endogenous enzyme)
Protocol: The produce an alimentary hyperglycemia and hyperinsulinaemia, groups of 6 fasting rats are given (a) 2.5 g of sucrose, (b) 2.5 g of maltose or (c) 1 g of boiled starch orally, in aqueous solution or suspension. Six other rats are given the same carbohydrates in the same amount and a glycoside hydrolase inhibitor in the amount indicated. In addition, six other rats are given an appropriate volume of saline. The blood glucose and the serum insulin are then measured at short intervals of time, in the blood from the retro-orbital venous plexus. Blood glucose determinations are carried out in the Auto-Analyser device (Technicon), according to Hoffmann: J. biol.

pancreas-α-amylase = molecular target: T2, pancreas-α-amylase (Sus scrofa, UniProt P00690); experiment: In vitro amylase test; assay type: biochemical; conditions: for α-Amylase Inhibition / α-Amylase Inhibition In Vitro: in vitro; for α-Amylase Inhibition: Table II; for α-Amylase Inhibition In Vitro: Table VI; for amylase inhibiting activity of isolated product: isolated product of the Examples
T2 sequence (P00690 16-511): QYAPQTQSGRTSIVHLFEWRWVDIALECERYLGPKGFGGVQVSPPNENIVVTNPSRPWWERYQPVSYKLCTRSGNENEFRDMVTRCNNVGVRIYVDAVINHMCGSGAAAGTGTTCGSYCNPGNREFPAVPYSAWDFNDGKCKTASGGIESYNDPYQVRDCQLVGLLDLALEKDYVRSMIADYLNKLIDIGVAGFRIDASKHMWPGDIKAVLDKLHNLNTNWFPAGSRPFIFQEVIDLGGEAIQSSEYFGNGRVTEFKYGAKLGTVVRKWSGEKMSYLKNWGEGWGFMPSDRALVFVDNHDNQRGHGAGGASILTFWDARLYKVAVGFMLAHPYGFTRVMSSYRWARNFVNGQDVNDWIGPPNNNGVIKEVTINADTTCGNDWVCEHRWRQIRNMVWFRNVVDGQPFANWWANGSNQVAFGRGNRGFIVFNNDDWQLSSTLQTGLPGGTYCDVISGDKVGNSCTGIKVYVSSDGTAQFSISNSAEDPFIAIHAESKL
Protocol: One amylase inhibitor unit (1 AIU) is defined as the amount of inhibitor which inhibits two amylase units to the extent of 50%. One amylase unit (AU) is the amount of enzyme which under the test conditions specified below splits 1 μequivalent of glucoside bonds in the starch per minute. The μequivalents of split bonds are determined colorimetrically as μequivalents of reducing sugars formed, using dinitrosalicylic acid, and are quoted as μequivalents of maltose equivalents, using a maltose calibration curve. To carry out the test, 0.1 ml of amylase solution (20-22 AU/ml) are mixed with 0-10 μg of inhibitor or 0-20 μl of the solution to be tested in 0.4 ml of 0.02 M sodium glycerophosphate buffer/0.001 M CaCl2, pH 6.9, and the mixture is equilibrated for 10-20 minutes in a water bath at 35° C. The mixture is then incubated for 5 minutes at 35° C with 0.5 ml of a 1% strength starch solution which has been pre-warmed to 35° C (soluble starch No. 1,252 from Merck, Darmstadt), and thereafter 1 ml of dinitrosalicyclic acid reagent (according to P. bernfeld in Colowick-Kaplan, Meth. Enzymol., Volume l, page 149) is added. To develop the color, the batch is heated for 5 minutes on a boiling water bath and then cooled, and 10 ml of distilled water are added. The extinction at 540 nm is measured against a correspondingly made-up blank without amylase. […] The percentage inhibition is plotted as a function of the quotient [formula]

starch digestion = experiment: In vivo starch digestion inhibition (starch feeding test) in the fasting rat; conditions: for ED50: ED50, starch, fasting rat, Table VI; for in vivo inhibition of starch digestion, in words: compared with expectation from in vitro amylase inhibition
maltase = experiment: In vitro maltase test; assay type: biochemical, pig; conditions: Table II
Protocol: One maltase inhibitor unit (MIU) is defined as the amount of inhibitor which inhibits two maltase units to the extent of 50%. One maltase unit (MU) is the amount of enzyme which in one minute, under the test conditions specified below, splits 1 μmol of maltose into 2 μmol of glucose. The μmol of glucose formed are determined quantitatively by means of the glucose oxidase reaction under conditions such that further splitting of maltose by the maltase no longer takes place. To carry out the test, 0.05 ml of solubilized maltase [from the mucous membrane of the small intestine of the pig, according to B. Borgstrom, A, Dahlquist, Acta Chem, Scan. […] The mixture is equilibrated for 10 minutes at 35° C and 0.1 ml of an 0.05 M maltose solution in 0.1 M sodium maleate buffer of pH 6.0, pre-warmed to 35° C, is then added. The mixture is incubated for 20 minutes at 35° C and the maltase reaction is stopped by addition of 1 ml of the glucose oxidase reagent described above, and the incubation is continued for a further 30 minutes at 35° C. Thereafter, 1 ml of 50% strength sulfuric acid is added and a measurement carried out at 545 nm against a corresponding blank.

[1] = 2.5 g sucrose + 100 SIU oral, 15 Min.
[2] = 2.5 g sucrose + 100 SIU oral, 30 Min.
[3] = 2.5 g sucrose + 100 SIU oral, 45 Min.
[4] = 1 g starch + 150 AIU oral, 5 Min.
[5] = 1 g starch + 150 AIU oral, 10 Min.
[6] = 1 g starch + 150 AIU oral, 15 Min.
[7] = 1 g starch + 150 AIU oral, 20 Min.
[8] = 1 g starch + 150 AIU oral, 30 Min.
[9] = 1 g starch + 150 AIU oral, 45 Min.
[10] = 1 g starch + 300 AIU oral, 5 Min.
[11] = 1 g starch + 300 AIU oral, 10 Min.
[12] = 1 g starch + 300 AIU oral, 15 Min.
[13] = 1 g starch + 300 AIU oral, 20 Min.
[14] = 1 g starch + 300 AIU oral, 30 Min.
[15] = 1 g starch + 300 AIU oral, 45 Min.

T1 sequence (P23739 1014-1841 limits assumed): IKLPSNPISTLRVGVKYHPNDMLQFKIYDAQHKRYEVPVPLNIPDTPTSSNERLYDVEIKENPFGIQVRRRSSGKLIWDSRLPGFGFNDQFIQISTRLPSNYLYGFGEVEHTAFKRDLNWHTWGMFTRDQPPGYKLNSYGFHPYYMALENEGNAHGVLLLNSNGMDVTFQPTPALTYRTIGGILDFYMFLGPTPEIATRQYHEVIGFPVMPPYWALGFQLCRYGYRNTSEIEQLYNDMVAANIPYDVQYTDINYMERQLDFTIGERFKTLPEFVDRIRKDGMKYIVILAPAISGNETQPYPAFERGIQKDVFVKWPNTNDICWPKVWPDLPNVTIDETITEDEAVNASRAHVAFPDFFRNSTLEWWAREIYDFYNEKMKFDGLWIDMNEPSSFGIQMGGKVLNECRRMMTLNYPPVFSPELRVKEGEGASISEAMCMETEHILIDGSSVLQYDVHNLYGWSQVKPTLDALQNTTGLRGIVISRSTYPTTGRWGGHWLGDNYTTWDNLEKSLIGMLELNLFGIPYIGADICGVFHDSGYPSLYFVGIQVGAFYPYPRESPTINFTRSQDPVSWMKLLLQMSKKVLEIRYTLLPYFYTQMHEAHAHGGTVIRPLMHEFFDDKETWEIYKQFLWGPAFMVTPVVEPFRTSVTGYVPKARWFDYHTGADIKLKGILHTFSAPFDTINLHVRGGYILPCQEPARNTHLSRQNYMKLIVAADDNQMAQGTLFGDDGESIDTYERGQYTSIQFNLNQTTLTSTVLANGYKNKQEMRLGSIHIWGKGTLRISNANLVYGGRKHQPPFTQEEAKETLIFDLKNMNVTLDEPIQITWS
T1 sequence (P23739 2-1013 partner limits assumed): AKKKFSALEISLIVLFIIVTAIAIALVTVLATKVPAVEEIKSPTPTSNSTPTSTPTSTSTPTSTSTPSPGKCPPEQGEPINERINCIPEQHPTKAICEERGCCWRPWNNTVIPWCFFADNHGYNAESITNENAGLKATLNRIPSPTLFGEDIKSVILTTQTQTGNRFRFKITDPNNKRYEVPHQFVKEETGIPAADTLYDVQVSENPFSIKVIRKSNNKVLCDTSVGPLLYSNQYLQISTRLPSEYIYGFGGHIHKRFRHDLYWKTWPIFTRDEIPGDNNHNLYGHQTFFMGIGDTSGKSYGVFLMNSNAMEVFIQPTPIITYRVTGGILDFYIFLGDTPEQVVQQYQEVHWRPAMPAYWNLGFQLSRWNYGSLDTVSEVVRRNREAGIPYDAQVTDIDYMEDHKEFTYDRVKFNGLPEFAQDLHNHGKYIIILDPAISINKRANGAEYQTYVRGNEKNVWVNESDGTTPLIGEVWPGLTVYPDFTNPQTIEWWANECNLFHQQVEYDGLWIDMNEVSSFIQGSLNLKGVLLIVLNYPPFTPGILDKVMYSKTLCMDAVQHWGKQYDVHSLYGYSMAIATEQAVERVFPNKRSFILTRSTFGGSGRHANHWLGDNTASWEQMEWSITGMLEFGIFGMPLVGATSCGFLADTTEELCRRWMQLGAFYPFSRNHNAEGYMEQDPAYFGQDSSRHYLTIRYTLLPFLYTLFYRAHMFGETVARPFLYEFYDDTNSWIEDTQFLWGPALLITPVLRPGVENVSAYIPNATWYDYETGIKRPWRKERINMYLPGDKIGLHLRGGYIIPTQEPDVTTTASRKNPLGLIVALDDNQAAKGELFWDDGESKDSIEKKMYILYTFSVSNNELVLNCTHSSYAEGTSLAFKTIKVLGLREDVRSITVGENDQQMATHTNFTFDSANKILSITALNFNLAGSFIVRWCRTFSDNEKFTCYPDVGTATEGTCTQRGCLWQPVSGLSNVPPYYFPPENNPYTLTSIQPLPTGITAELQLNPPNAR

SMILES	Blood Glucose (Mean ± SD) (saccharase; [1]) [mg%]	Blood Glucose (Mean ± SD) (saccharase; [2]) [mg%]	Blood Glucose (Mean ± SD) (saccharase; [3]) [mg%]	α-Amylase Inhibition (pancreas-α-amylase)	α-Amylase Inhibition In Vitro (pancreas-α-amylase) [AIU/mg]	amylase inhibiting activity of isolated product (pancreas-α-amylase)	Blood Glucose (Mean ± SD) (starch digestion; [4]) [mg%]	Blood Glucose (Mean ± SD) (starch digestion; [5]) [mg%]	Blood Glucose (Mean ± SD) (starch digestion; [6]) [mg%]	Blood Glucose (Mean ± SD) (starch digestion; [7]) [mg%]	Blood Glucose (Mean ± SD) (starch digestion; [8]) [mg%]	Blood Glucose (Mean ± SD) (starch digestion; [9]) [mg%]	Blood Glucose (Mean ± SD) (starch digestion; [10]) [mg%]	Blood Glucose (Mean ± SD) (starch digestion; [11]) [mg%]	Blood Glucose (Mean ± SD) (starch digestion; [12]) [mg%]	Blood Glucose (Mean ± SD) (starch digestion; [13]) [mg%]	Blood Glucose (Mean ± SD) (starch digestion; [14]) [mg%]	Blood Glucose (Mean ± SD) (starch digestion; [15]) [mg%]	ED50 (starch digestion) [mg/kg]	in vivo inhibition of starch digestion, in words (starch digestion)	also measured
C[C@H]1O[C@H](O[C@H]2[C@H](O)[C@@H](O)C(O)O[C@@H]2CO)[C@H](O)[C@@H](O)[C@@H]1N[C@H]1C=C(CO)[C@@H](O)[C@H](O)[C@H]1O (stereo partly drawn) [Formula IIB, O-{4,6-bisdesoxy-4-[1 S-(1,4,6/5)-4,5,6-trihydroxy-3-hydroxymethylcyclohex-2-en-1-ylamino]-α-D-glucopyranosyl}-(1→4)-D-glucopyranose]	89 ± 6.5	111 ± 4.1	116 ± 3.9	300,000 AIU/g	300	0.3 × 10^6 AIU/g	98 ± 8.7	116 ± 9.0	128 ± 5.8	127 ± 4.8	115 ± 5.2	137 ± 5.2	87 ± 13	106 ± 1.8	110 ± 8.9	111 ± 2.1	108 ± 5.3	121 ± 7.2	0.76	much higher than would be expected	Blood Glucose (Mean ± SD) (saccharase; 2.5 g sucrose + 50 SIU oral, 15 Min.): 105 ± 11 mg%; Blood Glucose (Mean ± SD) (saccharase; 2.5 g sucrose + 50 SIU oral, 30 Min.): 123 ± 5.2 mg%; Blood Glucose (Mean ± SD) (saccharase; 2.5 g sucrose + 50 SIU oral, 45 Min.): 128 ± 11 mg%; Blood Glucose (Mean ± SD) (saccharase; 2.5 g sucrose + 200 SIU oral, 15 Min.): 72 ± 4.6 mg%; Blood Glucose (Mean ± SD) (saccharase; 2.5 g sucrose + 200 SIU oral, 30 Min.): 95 ± 9.1 mg%; Blood Glucose (Mean ± SD) (saccharase; 2.5 g sucrose + 200 SIU oral, 45 Min.): 104 ± 9.6 mg%; ED50 (saccharase; ED50, sucrose, fasting rat, Table IV, read-out: Saccharase Inhibition In Vitro (ED50 mg/kg)): 3 mg/kg; Blood Glucose (Mean ± SD) (starch digestion; 1 g starch + 75 AIU oral, 5 Min.): 102 ± 2.9 mg%; Blood Glucose (Mean ± SD) (starch digestion; 1 g starch + 75 AIU oral, 10 Min.): 130 ± 6.9 mg%; Blood Glucose (Mean ± SD) (starch digestion; 1 g starch + 75 AIU oral, 15 Min.): 128 ± 5.4 mg%; Blood Glucose (Mean ± SD) (starch digestion; 1 g starch + 75 AIU oral, 20 Min.): 143 ± 11 mg%; Blood Glucose (Mean ± SD) (starch digestion; 1 g starch + 75 AIU oral, 30 Min.): 125 ± 11 mg%; Blood Glucose (Mean ± SD) (starch digestion; 1 g starch + 75 AIU oral, 45 Min.): 132 ± 18 mg%; Maltase Inhibition (maltase): 5,000 MIU/g
C[C@H]1O[C@H](O[C@H]2[C@H](O)[C@@H](O)[C@@H](O[C@H]3[C@H](O)[C@@H](O)C(O)O[C@@H]3CO)O[C@@H]2CO)[C@H](O)[C@@H](O)[C@@H]1N[C@H]1C=C(CO)[C@@H](O)[C@H](O)[C@H]1O (stereo partly drawn) [Formula IIIB, O-{4,6-bisdesoxy-4-[1 S-(1,4,6/5)-4,5,6-trihydroxy-3-hydroxymethylcyclohex-2-en-1-ylamino]-α-D-glucopyranosyl}-(1→4)-O-α-D-glucopyranosyl-(1→4)-D-glucopyranose]	58 ± 5.9	92 ± 4.0	98 ± 5.0	300,000 AIU/g	300	0.3 × 10^6 AIU/g	82 ± 7.5	105 ± 4.2	120 ± 6.0	124 ± 7.0	134 ± 6.1	125 ± 5.2	79 ± 8.2	97 ± 2.7	105 ± 10	118 ± 6.7	119 ± 9.9	130 ± 5.9	1.6	much higher than would be expected	Blood Glucose (Mean ± SD) (saccharase; 2.5 g sucrose + 25 SIU oral, 15 Min.): 71 ± 3.7 mg%; Blood Glucose (Mean ± SD) (saccharase; 2.5 g sucrose + 25 SIU oral, 30 Min.): 100 ± 7.3 mg%; Blood Glucose (Mean ± SD) (saccharase; 2.5 g sucrose + 25 SIU oral, 45 Min.): 107 ± 2.4 mg%; ED50 (saccharase; rat): 0.21 mg/kg; Blood Glucose (Mean ± SD) (starch digestion; 1 g starch + 600 AIU oral, 5 Min.): 70 ± 4.6 mg%; Blood Glucose (Mean ± SD) (starch digestion; 1 g starch + 600 AIU oral, 10 Min.): 80 ± 8.8 mg%; Blood Glucose (Mean ± SD) (starch digestion; 1 g starch + 600 AIU oral, 15 Min.): 94 ± 6.9 mg%; Blood Glucose (Mean ± SD) (starch digestion; 1 g starch + 600 AIU oral, 20 Min.): 91 ± 16 mg%; Blood Glucose (Mean ± SD) (starch digestion; 1 g starch + 600 AIU oral, 30 Min.): 103 ± 9.2 mg%; Blood Glucose (Mean ± SD) (starch digestion; 1 g starch + 600 AIU oral, 45 Min.): 102 ± 4.2 mg%; Blood Glucose (Mean ± SD) (starch digestion; 1 g starch + 1,200 AIU oral, 5 Min.): 70 ± 7.0 mg%; Blood Glucose (Mean ± SD) (starch digestion; 1 g starch + 1,200 AIU oral, 10 Min.): 84 ± 7.7 mg%; Blood Glucose (Mean ± SD) (starch digestion; 1 g starch + 1,200 AIU oral, 15 Min.): 88 ± 7.4 mg%; Blood Glucose (Mean ± SD) (starch digestion; 1 g starch + 1,200 AIU oral, 20 Min.): 97 ± 5.2 mg%; Blood Glucose (Mean ± SD) (starch digestion; 1 g starch + 1,200 AIU oral, 30 Min.): 97 mg%; Blood Glucose (Mean ± SD) (starch digestion; 1 g starch + 1,200 AIU oral, 45 Min.): 100 ± 4.3 mg%; Maltase Inhibition (maltase): 15,000 MIU/g
